Records with an inconclusive call do not appear. Calls of active or inactive are those of the source.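 How the source made its calls: active means EC50 no more than tenfold above the top concentration tested, with valid fit and all samples agreeing; inconclusive means flat fit at 30 to 70% inhibition, poor fit, or split samples; inactive means EC50 beyond tenfold the top concentration tested.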
System: BJeLR fibroblast viability, Alamar Blue fluorescence, 48 h
Test: BJeLR fibroblast growth inhibition, viability readout – cell-based, alamar blue fluorescence, 48 h, cherrypicked samples, dose response (AID 2610);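 further: BJ fibroblasts with hTERT plus SV40 large and small T and HRAS V12; EC50 for loss of viable cells so potency reflects cytotoxic compounds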

| SMILES | EC50 |
| --- | --- |
| CCN1C/C(=C/c2ccc(OC)c(O)c2)C(=O)/C(=C/c2ccc(OC)c(O)c2)C1 | 472 nM |
| COc1cc([C@@H]2c3cc4c(cc3[C@@H](NC3CCN(Cc5ccccc5)CC3)[C@H]3COC(=O)[C@H]23)OCO4)cc(OC)c1O | 133 nM |
| CCc1ccc(NC(=O)[C@H](Cc2c[nH]c3ccccc23)NC(=O)[C@@H]2Cc3ccccc3CN2)cc1 | > 13300 nM (inactive) |
| CCOc1ccc2nc(NC(=O)c3ccoc3C)sc2c1 | > 13300 nM (inactive) |
| Cc1cc(C)c2c(CCl)cc(=O)oc2c1 | 116 nM |
| Cc1ccc(C(=O)Sc2cccccc2=O)cc1 | < 62.4 nM |
| CCOc1ccc(CC(=O)Nc2ccc(NC(=O)c3ccco3)cc2)cc1OCC | 2060 nM |
| CC1=CC(C)(C)N(S(=O)(=O)c2ccc(C)cc2)c2cc(C)ccc21 | 386 nM |
| CCN(CC)c1ccc(/C=N/NC(=O)c2ccco2)c(O)c1 | 804 nM |
| Nc1nc(N)c2c(ccc3nccc32)[nH]1 | > 13300 nM (inactive) |
| Cc1cccc2cc(C#N)c(SCC(=O)N3CC(=O)Nc4ccccc43)nc12 | < 104 nM |
| Cc1ccc(C(=O)c2cc([N+](=O)[O-])ccc2N2CCCCC2)c(C)c1 | < 104 nM |
| O=C(N/N=C/c1cccs1)c1cc(-c2ccncc2)nc2ccccc12 | 113 nM |
| Cc1c(C(=O)OCC(=O)N2CC(=O)Nc3ccccc32)oc2ccc(Br)cc12 | > 13300 nM (inactive) |
| C[C@]12CCC3C(CCC4=CC(O)CC[C@@]43/C=N/O)C1(O)CCC2C1=CC(=O)OC1 (some centres undefined) | 294 nM |
| COc1ccc(C)cc1NS(=O)(=O)c1ccc(-c2cnc(C3CC3)o2)cc1 | < 104 nM |
| O=c1c2ccccc2cnn1-c1nc2ccccc2[nH]1 | > 13300 nM (inactive) |
| C/C(=N\Nc1nc2ccccc2[nH]1)c1ccccn1 | 165 nM |
| O=C(c1ccc2c3n(nc2c1)-c1ccccc1CO3)N1CCCCC1 | > 13300 nM (inactive) |
| C(=N\Nc1nncc2ccccc12)/c1ccccn1 | 3340 nM |
| COc1ccc(-c2cc3nc(C)cc(N)n3n2)cc1 | > 13300 nM (inactive) |
| CCCN1C=CC(=C2C(=O)c3ccccc3C2=O)C=C1 | > 13300 nM (inactive) |
| O=S(=O)(c1ccc(NC(=S)NCc2cccnc2)cc1)N1CCCCC1 | < 133 nM |
| COc1ccc2[nH]c3c(NCCC4=CCCCC4)ncnc3c2c1 | > 13300 nM (inactive) |
| C[C@@H]1O[C@@H](O[C@H]2C[C@@H](O)[C@]3(CO)[C@H]4[C@H](O)C[C@]5(C)[C@@H](C6COC(=O)C6)CC[C@]5(O)[C@@H]4CC[C@]3(O)C2)[C@H](O)[C@H](O)[C@H]1O (some centres undefined) | 802 nM |

| SMILES | EC50 |
| --- | --- |
| CCCCN=C[C@]12CCC(O)CC1(O)CCC1[C@@H]2CC[C@]2(C)[C@H](C3C=CC(=O)O3)CCC12O (some centres undefined) | 315 nM |
| O=C(Cc1ccc(Cl)cc1)c1c[nH]c(C(=O)NCc2cccnc2)c1 | > 13300 nM (inactive) |
| C/C(=N\NC(=O)c1ccccc1F)c1ccccn1 | 4140 nM |
| Oc1ccccc1N=Nc1nc(-c2ccccc2)c(-c2ccccc2)[nH]1 | 176 nM |
| Cc1cc(-n2c(SCC(=O)NCCC3=CCCCC3)nc3n[nH]c(C)c3c2=N)ccc1Cl | > 13300 nM (inactive) |
| COc1cc(C2CC(c3cccs3)=NN2C(=O)CCl)ccc1OC(F)F (centres undefined) | 271 nM |
| O=C(Oc1ccc(-c2nc(-c3ccccn3)no2)cc1)c1ccccc1 | > 13300 nM (inactive) |
| CC[C@@]1(O)C(=O)OCc2c1cc1n(c2=O)Cc2cc3c(N)cccc3nc2-1 | < 30.7 nM |
| COc1cccc(C(=O)N/N=C(/c2ccccc2)c2ccccn2)c1 | 821 nM |
| O=C(COc1ccc(Cl)cc1)Nc1ccc(C(=O)NCc2cccnc2)cc1 | 4420 nM |
| O=C(COc1ccc([N+](=O)[O-])cc1)Nc1ccc(C(=O)NCc2cccnc2)cc1 | > 13300 nM (inactive) |
| N#CC(C#N)=NNc1ccc(-n2ccc(C(F)(F)F)n2)cc1 | 2650 nM |
| COC(=O)c1cccc(Nc2c3c(nc4ccccc24)CCC3)c1 | 2600 nM |
| CCOC(=O)c1[nH]c(C)c(C(=O)N2CCc3ccccc32)c1C | < 104 nM |
| O=S1(=O)C=C(Sc2nc3ccccc3s2)c2ccccc21 | 316 nM |
| COCc1c(C(C)C)nc(C(C)C)c(/C=C/[C@@H](O)C[C@@H](O)CC(=O)O)c1-c1ccc(F)cc1 | < 104 nM |
| COc1ccc(S(=O)(=O)N2c3ccc(F)cc3CCC2C)cc1 (centres undefined) | < 104 nM |
| COc1cccc(N2CCN(C(=O)c3ccc(CS(=O)c4ccc(C)cc4)o3)CC2)c1 (centres undefined) | 165 nM |
| COc1ccccc1N1CCN(C(=O)c2cc(=O)c3cc(C)cc(C)c3o2)CC1 | < 104 nM |
| CC1=CC(=O)C=C(C)C1=NOc1ccccc1[N+](=O)[O-] | 670 nM |
| CC1C/C(=C/c2ccncc2)C(=O)/C(=C/c2ccncc2)C1 (centres undefined) | 400 nM |
| O=C(Sc1cccc2cccnc12)c1ccccc1Br | 337 nM |
| CN1C/C(=C/c2ccncc2)C(=O)/C(=C/c2ccncc2)C1 | 555 nM |
| COC(=O)C1CC23C=CCN4CCC5(c6ccccc6NC15C2C)C43 (centres undefined) | < 104 nM |
| CCn1cc(C(=O)NCc2ccco2)c(=O)c2cc(S(=O)(=O)N3CC(C)CC(C)C3)ccc21 (centres undefined) | > 13300 nM (inactive) |

| SMILES | EC50 |
| --- | --- |
| O=C1C(=O)c2ccc(-c3ccccc3)cc2-c2ccccc21 | 926 nM |
| c1ccc(-c2ccc(-c3nc(-c4ccccn4)no3)cc2)cc1 | > 13300 nM (inactive) |
| COc1ccc(C(=O)N/N=C(\C)c2ccccn2)cc1OC | 795 nM |
| O=C1c2cccc3cc([N+](=O)[O-])cc(c23)C(=O)N1CCN1CCCC1 | 409 nM |
| Cc1nc(N)nc(N)c1/C=C/C(C)(C)c1ccc(Cl)cc1 | > 13300 nM (inactive) |
| COc1ccc(N(C(=O)CCl)C(C(=O)NCCc2ccccc2)c2cccs2)cc1Cl (centres undefined) | < 50.2 nM |
| Cc1ccccc1OCC(O)CNC1CCC(NCC(O)COc2ccccc2C)CC1 (centres undefined) | 582 nM |
| Cc1ccc(/C=C2\SC(=S)N(CCCC(=O)N3CCOCC3)C2=O)cc1 | 3580 nM |
| O=C(CCl)N=c1sccn1Cc1ccccc1Cl | < 88.2 nM |
| COc1cc2c(cc1OC)C(c1cc(Br)ccc1F)N(C(=O)CCl)CC2 (centres undefined) | 1310 nM |
| COC(=O)c1[nH]c2c(c1C)C(=O)CC(c1cccs1)C2 (centres undefined) | 152 nM |
| COc1cccc(N(C(=O)CCl)C(C(=O)NCCc2ccccc2)c2cccs2)c1 (centres undefined) | 212 nM |
| CC(C)(C)c1ccc(C(=O)Nc2ccc(C(=O)NCc3cccnc3)cc2)cc1 | < 118 nM |
| COc1ccccc1/C=C1\SC(=S)N(CCC(=O)NCCCn2ccnc2)C1=O | > 13300 nM (inactive) |
| COc1ccc(S(=O)(=O)N2c3cc(Cl)ccc3Oc3nc4ccccc4nc32)cc1 | 193 nM |
| C/C(=N\NC(=O)c1ccc(F)cc1)c1ccccn1 | 491 nM |
| Oc1ccc(/C=N/Nc2nccnc2Cl)c(O)c1 | 6750 nM |
| CC(=O)c1ccccc1OCCOCCOCCOc1ccccc1C(C)=O | > 13300 nM (inactive) |
| CCN(CC)c1ccc(/C=N/NC(=O)c2nnn(-c3nonc3N)c2C(C)C)c(O)c1 | 565 nM |
| CC[C@@]1(O)C(=O)OCc2c1cc1n(c2=O)Cc2cc3c(NC(=O)CN)cccc3nc2-1 | 292 nM |
| S=C(N/N=C/c1ccc2ncccc2c1)Nc1ccccc1 | > 13300 nM (inactive) |
| CC(=O)c1ccc(Oc2cc(C)nc(-n3nc(C)cc3C)n2)cc1 | < 104 nM |
| COc1ccc(OC)c2c1C(=O)C(Cl)=C(Cl)C2=O | 2980 nM |
| CCN1/C(=C/C(C)=C/c2sc3ccccc3[n+]2CC)Sc2ccccc21 | 152 nM |
